pIC50: −log10 of the molar value.
Each compound was assayed on guanosine and adenosine (assay: 1H NMR study of binding to DNA bases (guanosine/adenosine adduct formation)). Conditions: 500 MHz 1H NMR; guanosine:adenosine:compound mole ratio 1.3:1:1 in 10% D2O/90% H2O.
Excerpt: The ability of the compounds of the invention to bind to DNA bases was studied by nmr and the results are illustrated in the accompanying figures in which:
FIG. 1 is a 500 MHz ^1H NMR spectrum of a mixture of guanosine:adenosine:compound of Example 1 in the mole ratio 1.3:1:1, respectively, in 10% D2O/90% H2O.
In FIG. 2, the region from 5.1 to 5.4 ppm (right) corresponds to the central CH on the acac ligand. Peaks a and b correspond to the adenosine adducts, peak c to the guanosine adduct. In the region 7.9-8.6 ppm (left), peaks for the H2 and H8 protons of adenosine and H8 protons of guanosine appear. […] The atom labelling scheme for the nucleobase part (A and G) of the nucleosides is shown.

SMILES	adduct formation with adenosine and guanosine (binding to DNA bases)
CC(=O)C=C(C)[O][Ru][Cl].Cc1ccc(C(C)C)cc1 [Example 1, [(η^6-p-cymene)RuCl(H3CCOCHCOCH3-O,O)]]	both adenosine and guanosine form adducts

Each compound was assayed on A2780 ovarian cancer cell line (assay: Cytotoxicity of Ru compounds on A2780 ovarian cancer cell line (cell count, Coulter counter)). Conditions: A2780 cells; 24 hours drug exposure, further 3 days growth, cells counted.
Type: cell-based
Method: 1. Protocol for Testing Ru Compounds The compounds are tested on 24-well trays. Cells growing in a flask are harvested just before they become confluent, counted using a haemocytometer and diluted down with media to a concentration of 1×10^4 cells per ml. The cells are then seeded in the 24-well trays at a density of 1×10^4 cells per well (i.e. 1 ml of the diluted cell suspension is added to each well). The cells are then left to plate down and grow for 72 hours before adding the compounds of the invention. The Ru complexes are weighed out and made up to a concentration of 1 mg/ml with deionised water and 0.5% w/w DMSO. The appropriate volume of the Ru solution is added to 5 ml of media to make it up to a concentration of 100 μM for each drug. This 100 μM solution is then serially diluted to make up the 10 μM, 1 μM and 0.1 μM solutions. The media is removed from the cells and replaced with 1 ml of the media dosed with drug. Each concentration is done in duplicate. A set of control wells are left on each plate, containing media and 0.5% w/w DMSO without drug. The cells are left exposed to the drugs for 24 hours and then washed with phosphate buffered saline before fresh media is added. They are allowed to grow on for a further 3 days before being counted using a Coulter counter. Preparing Cells for Counting: Media is removed and 1 ml of PBS is added to the cells. 250 μl of trypsin is added and cells left in incubator for a few minutes to allow the monolayers to detach. Once trypsinised, 250 μl of media is added to each well to neutralise the trypsin. 200 μl of this suspension is added to 10 ml of NaCl for counting. Using the above protocol, a number of compounds of the invention were tested on A2780 ovarian cancer cell line. […]

SMILES	pIC50
CC(=O)C=C(C)[O][Ru][Cl].Cc1ccc(C(C)C)cc1 [Example 1, [(η^6-p-cymene)RuCl(H3CCOCHCOCH3-O,O)]]	4.72
Cc1ccc(C(C)C)cc1.O=C([CH-]C(=O)C(F)(F)F)C(F)(F)F.[Cl-].[Ru+2] [Example 2, [(η^6-p-cymene)RuCl(F3CCOCHCOCF3—O,O)]]	< 4.00
Cc1ccc(C(C)C)cc1.O=C([CH-]C(=O)c1ccccc1)c1ccccc1.[Cl-].[Ru+2] [Example 3, [(η^6-p-cymene)RuCl(C6H5COCHCOC6H5—O,O)]]	4.96
CC(C)(C)C(=O)[CH-]C(=O)C(C)(C)C.Cc1ccc(C(C)C)cc1.[Cl-].[Ru+2] [Example 4, [(η^6-p-cymene)RuCl((CH3)3CCOCHCOC(CH3)3—O,O)]]	4.85
CC(=O)C=C(C)[O][Ru][Cl].c1ccc(-c2ccccc2)cc1 [Example 5, [(η^6—C6H5C6H5RuCl(H3CCOCHCOCH3—O,O)]]	4.68
CC#N.CC(=O)C=C(C)[O][Ru+].Cc1ccc(C(C)C)cc1.F[B-](F)(F)F [Example 6, [(η^6-p-cymene)Ru(CH3CN)(H3CCOCHCOCH3—O,O)]BF4]	4.66

— US20060058270A1, “Ruthenium anticancer complexes” (priority 2002, published 2006)
